# In patent US20190212344A1, “BIOMARKERS FOR USE IN DETERMINING RESPONSE TO TREATMENT OF NEURODEGENERATION DISEASE” (The Board of Trustees of the Leland Stanford Junior …, priority 2016, published 2019):
# Residues, ends and D or L forms follow the SMILES beside them.
# Test system: R6/2 mice
# Test: Survival of R6/2 and WT mice during P110 treatment
# Type: in vivo, mouse
# Conditions: 10 P110-treated WT mice, intermittent treatment over 8 weeks
# Experimental: All the experiments were in accordance with protocols approved by the Institutional Animal Care and Use Committee of Stanford University and were performed based on the National Institutes of Health Guide for the Care and Use of Laboratory Animals. Hemizygous R6/2 HD mice and their wild-type littermates (WT) were purchased from Jackson Laboratories and shipped to us at 5 weeks of age. The animals used in the P110 treatment study were implanted with a 28-day osmotic pump (Alzet, Cupertino Calif.) containing TAT47-57 carrier control peptide or P110-TAT47-57 (P110 peptide), which delivered to the mice at a rate of 3 mg/Kg/day, as described before. The first pump was implanted at 5 weeks of age and replaced once, after 4 weeks. For the intermittent treatment study, TAT or P110 were delivered as above, using a 1-week pump. After 3 weeks with no treatment, a new pump was implanted for another week of treatment, and mice were sacrificed three weeks later, at the age of 13 weeks.
# The overall survival during the study period was recorded and the remaining mice were sacrificed when they reached 13 weeks. […]
# The results are presented as mean±SE. Statistical analysis was assessed by unpaired Student's t test and 1-way ANOVA using GraphPad Prism (GraphPad Software, Inc, La Jolla, Calif.). […]
smiles,measurement,value
CC(C)C[C@H](NC(=O)[C@H](CC(=O)O)NC(=O)CNC(=O)CNC(=O)[C@H](CCCNC(=N)N)NC(=O)[C@H](CCCNC(=N)N)NC(=O)[C@H](CCCNC(=N)N)NC(=O)[C@H](CCC(N)=O)NC(=O)[C@H](CCCNC(=N)N)NC(=O)[C@H](CCCNC(=N)N)NC(=O)[C@H](CCCCN)NC(=O)[C@H](CCCCN)NC(=O)[C@H](CCCNC(=N)N)NC(=O)CNC(=O)[C@@H](N)Cc1ccc(O)cc1)C(=O)N[C@@H](CC(C)C)C(=O)N1CCC[C@H]1C(=O)N[C@@H](CCCNC(=N)N)C(=O)NCC(=O)N[C@@H](CO)C(=O)O [P110] (H-YGRKKRRQRRRGGDLLPRGS-OH),death in WT mice,no death
